# Read-outs that look alike come from different tables or passages of the source.
# What was measured:
# [1] = test system: HIV-1 clinical isolated, characterised by mutations in the RT gene inducing geno-phenotypic resistance to 3TC; test: p24 production susceptibility test (ACTG protocol), Table 3; assay type: cell-based; settings: for EC50: Human immunodeficiency virus 1, PBMC, read-out: E.C.50 CQ; for S.I. CQ / Fen. CQ (fold): PBMC; for S.I. CQ: I.C.50/E.C.50; for Fen. CQ (fold): ratio to HIV-IIIB
# Text: (§1) For the phenotype of the nucleosidic, non-nucleosidic and proteases inhibitors was utilised a method which consider the use of human PBMC and the protocol standardised by the AIDS Clinical Trials Group, after verifying the genotype by sequence analysis.
# (§2) In order to assay in vitro the susceptibility to chloroquine and hydroxychloroquine of the viral strains, it was used the protocol of the ACTG which is characterised by the measure, of the production of antigen p24 in strongly infected cells.
# (§3) The susceptibility of the viral strains to chemotherapics was determined in cell cultures, prepared in 96 wells microplates, using, for the infection, 0.1 MOI.
# (§4) The supernatant of the infected cultures (either in absence or in presence of different concentrations of chemotherapic) were tested for the production of p24 after 7 days, using an ELISA test which is commercially available.
# At the same time non-infected cells were incubated with concentrations of chloroquine and hydroxychloroquine ranging from 0 to 50 uM to evaluate the toxicity of the compound.
# (§5) After 4 day from the infection, half the cellular medium was replaced with a medium containing the corresponding dilution of chloroquine and hydroxychloroquine. The percentage of inhibition of the HIV replication, induced by chloroquine and hydroxychloroquine, was determined, after 7 day from the infection, comparing the levels of p24 of this cultures and that of the control, infected and not treated with chloroquine and hydroxychloroquine.
# (§6) Therefore, the E.C.50 of chloroquine and hydroxychloroquine expresses the concentration of chemotherapic that inhibits the 50% of production of p24 and the values were calculated using linear and non linear regression analysis (the significativity for the non linear regression was R^2>0.95).
# (§7) In the same experimental conditions and in the same day, but with similar concentrations of chloroquine and hydroxychloroquine, it was evaluated the vitality of the infect cell cultures, and this was expressed as I.C.50.
# (§8) I.C.50 (Inhibitory Concentration) indicates the concentration of the chemotherapic agent inhibiting the vitality of the cell cultures at a rate of 50%, when there is not infection.
# [2] = test system: HIV-1 strains geno-phenotypically resistant to NVP; test: p24 production susceptibility test, Table 6, MT-2 cells; assay type: cell-based; settings: for EC50: Human immunodeficiency virus 1, MT2, MT-2, read-out: E.C.50 CQ; for S.I. CQ / Fen. CQ (fold): MT-2; for S.I. CQ: I.C.50/E.C.50; for Fen. CQ (fold): ratio to HIV-IIIB
# Text: as §1, §2, §3, §4
# (§9) The concentrations of chloroquine and hydroxychloroquine tested ranged from 0.5 to 15 uM. At the same time non-infected cells were incubated with concentrations of chloroquine and hydroxychloroquine ranging from 0 to 50 uM to evaluate the toxicity of the compound.
# as §5, §6, §7, §8
# [3] = test system: HIV-1 clinical isolated, characterised by mutations on the protease gene inducing geno-phenotypic resistance to NFV; test: p24 production susceptibility test (ACTG protocol), Table 10, PBMC; assay type: cell-based; settings: for S.I. CQ: I.C.50/E.C.50; for Fen. CQ (fold): ratio to HIV-IIIB; for EC50: Human immunodeficiency virus 1, PBMC, read-out: E.C.50 CQ
# Text: as §1, §2, §3, §4, §9, §5, §6, §7, §8
# [4] = test system: HIV-1 clinical isolated, characterised by mutations in the RT gene inducing geno-phenotypic resistance to ABC; test: p24 production susceptibility test (ACTG protocol), Table 5; assay type: cell-based; settings: for EC50: Human immunodeficiency virus 1, PBMC, read-out: E.C.50 CQ; for S.I. CQ / Fen. CQ (fold): PBMC; for S.I. CQ: I.C.50/E.C.50; for Fen. CQ (fold): ratio to HIV-IIIB
# Text: as §1, §2, §3, §4, §9, §5, §6, §7, §8
# [5] = test system: HIV-1 clinical isolated, characterised by mutations in the RT gene inducing geno-phenotypic resistance to d4T; test: p24 production susceptibility test (ACTG protocol), Table 4; assay type: cell-based; settings: for EC50: Human immunodeficiency virus 1, PBMC, read-out: E.C.50 CQ; for S.I. CQ / Fen. CQ (fold): PBMC; for S.I. CQ: I.C.50/E.C.50; for Fen. CQ (fold): ratio to HIV-IIIB
# Text: as §1, §2, §3, §4, §9, §5, §6, §7, §8
# [6] = test system: HIV clinical isolated, characterised by mutations in the RT gene inducing geno-phenotypic resistance to ddI; test: p24 production susceptibility test (ACTG protocol), Table 2; assay type: cell-based, HIV-1; settings: for EC50: Human immunodeficiency virus 1, PBMC, read-out: E.C.50 CQ; for S.I. CQ / Fen. CQ (fold): PBMC; for S.I. CQ: I.C.50/E.C.50; for Fen. CQ (fold): ratio to HIV-IIIB
# Text: as §1, §2, §3, §4, §9, §5, §6, §7, §8
# [7] = Gen. M4IL E44D D67N M184V R211K T215Y
# [8] = Gen. M41L D67N V118I M184V T215Y
# [9] = Gen. K65R S68G F77L Y115F Q151M M184V
# [10] = Gen. M41L D67N M184V L210W T215Y
# [11] = Gen. K65R F77L Y115F Q151M M184V
# [12] = Gen M4IL M184V L210W R211KL 214F T215Y
compound,measurement,setting,value
"CCN(CC)CCCC(C)Nc1ccnc2cc(Cl)ccc12 (stereo not drawn) [CQ, chloroquine]",EC50,[1]; [7],3000 nM
same,EC50,[1]; [8],3500 nM
same,EC50,[1]; Gen. M184I,2500 nM
same,EC50,[1]; Gen. M184V,3200 nM
same,S.I. CQ,[1]; [7],3
same,Fen. CQ (fold),[1]; [7],2.1X fold
same,S.I. CQ,[1]; [8],3.4
same,Fen. CQ (fold),[1]; [8],1.9X fold
same,S.I. CQ,[1]; Gen. M184I,3.6
same,Fen. CQ (fold),[1]; Gen. M184I,1.1X fold
same,S.I. CQ,[1]; Gen. M184V,2.5
same,Fen. CQ (fold),[1]; Gen. M184V,1.4X fold
same,EC50,[2]; Gen. G190E,3500 nM
same,EC50,[2]; Gen. K103N,3200 nM
same,EC50,[2]; Gen. V106A,2800 nM
same,EC50,[2]; Gen. Y181C,3800 nM
same,S.I. CQ,[2]; Gen. G190E,6
same,Fen. CQ (fold),[2]; Gen. G190E,1.9X fold
same,S.I. CQ,[2]; Gen. K103N,6.2
same,Fen. CQ (fold),[2]; Gen. K103N,1.7X fold
same,S.I. CQ,[2]; Gen. V106A,7.8
same,Fen. CQ (fold),[2]; Gen. V106A,1.5X fold
same,S.I. CQ,[2]; Gen. Y181C,6
same,Fen. CQ (fold),[2]; Gen. Y181C,2.1X fold
same,S.I. CQ,[3]; Gen. D30N A71V,5.5
same,Fen. CQ (fold),[3]; Gen. D30N A71V,1X fold
same,S.I. CQ,[3]; Gen. D30N M46V A71V,4
same,Fen. CQ (fold),[3]; Gen. D30N M46V A71V,1.2X fold
same,S.I. CQ,[3]; Gen. G48V V92A,3.2
same,Fen. CQ (fold),[3]; Gen. G48V V92A,1.6X fold
same,S.I. CQ,[3]; Gen. V82F L90M,3.4
same,Fen. CQ (fold),[3]; Gen. V82F L90M,1.5X fold
same,EC50,[3]; Gen. D30N A71V,1800 nM
same,EC50,[3]; Gen. D30N M46V A71V,2200 nM
same,EC50,[3]; Gen. G48V V92A,3000 nM
same,EC50,[3]; Gen. V82F L90M,2800 nM
same,EC50,[4]; Gen. K65R L74V M184V,1800 nM
same,EC50,[4]; [9],2500 nM
same,EC50,[4]; Gen. L74V M184F,1800 nM
same,EC50,[4]; Gen. L74V Y115F M184V,2200 nM
same,EC50,[4]; [10],2200 nM
same,S.I. CQ,[4]; Gen. K65R L74V M184V,5.5
same,Fen. CQ (fold),[4]; Gen. K65R L74V M184V,1.2X fold
same,S.I. CQ,[4]; [9],3.6
same,Fen. CQ (fold),[4]; [9],1.6X fold
same,S.I. CQ,[4]; Gen. L74V M184F,5.5
same,Fen. CQ (fold),[4]; Gen. L74V M184F,1.2X fold
same,S.I. CQ,[4]; Gen. L74V Y115F M184V,4
same,Fen. CQ (fold),[4]; Gen. L74V Y115F M184V,1.2X fold
same,S.I. CQ,[4]; [10],4
same,Fen. CQ (fold),[4]; [10],1.4X fold
same,EC50,[5]; [11],3500 nM
same,EC50,[5]; Gen. K65R F116Y Q151M,3500 nM
same,EC50,[5]; Gen. M41I T69SSS T215Y,2800 nM
same,EC50,[5]; Gen. T69SSS T215Y,2800 nM
same,EC50,[5]; Gen. V75I F77L F116Y Q151M,2200 nM
same,S.I. CQ,[5]; [11],3.4
same,Fen. CQ (fold),[5]; [11],2.3X fold
same,S.I. CQ,[5]; Gen. K65R F116Y Q151M,3.4
same,Fen. CQ (fold),[5]; Gen. K65R F116Y Q151M,2.3X fold
same,S.I. CQ,[5]; Gen. M41I T69SSS T215Y,3.4
same,Fen. CQ (fold),[5]; Gen. M41I T69SSS T215Y,1.8X fold
same,S.I. CQ,[5]; Gen. T69SSS T215Y,3.4
same,Fen. CQ (fold),[5]; Gen. T69SSS T215Y,1.8X fold
same,S.I. CQ,[5]; Gen. V75I F77L F116Y Q151M,3
same,Fen. CQ (fold),[5]; Gen. V75I F77L F116Y Q151M,1.5X fold
same,EC50,[6]; Gen D67N K70R M184V T215Y,2500 nM
same,EC50,[6]; Gen D67N K70R T215F K70R,3000 nM
same,EC50,[6]; Gen K70R T215F K219Q,1800 nM
same,EC50,[6]; [12],2000 nM
same,EC50,[6]; Gen M41I T215F,2000 nM
same,EC50,[6]; Gen M41L D67N K70R M184V T215Y,2500 nM
same,EC50,[6]; Gen M41L D67N K70R T215Y,3000 nM
same,S.I. CQ,[6]; Gen D67N K70R M184V T215Y,4.5
same,Fen. CQ (fold),[6]; Gen D67N K70R M184V T215Y,1.5X fold
same,S.I. CQ,[6]; Gen D67N K70R T215F K70R,3
same,Fen. CQ (fold),[6]; Gen D67N K70R T215F K70R,1.3X fold
same,S.I. CQ,[6]; Gen K70R T215F K219Q,5.5
same,Fen. CQ (fold),[6]; Gen K70R T215F K219Q,0.7X fold
same,S.I. CQ,[6]; [12],4.5
same,Fen. CQ (fold),[6]; [12],1.1X fold
same,S.I. CQ,[6]; Gen M41I T215F,4
same,Fen. CQ (fold),[6]; Gen M41I T215F,1.1X fold
same,S.I. CQ,[6]; Gen M41L D67N K70R M184V T215Y,3.6
same,Fen. CQ (fold),[6]; Gen M41L D67N K70R M184V T215Y,1.3X fold
same,S.I. CQ,[6]; Gen M41L D67N K70R T215Y,3.2
same,Fen. CQ (fold),[6]; Gen M41L D67N K70R T215Y,1.2X fold
